Test results from PubChem BioAssay AID2060622 (Molecular Pharmacology Branch, DTP, NCI, 2025).

System: 242566-281-R-J2-PDC complex spheroid viability
Assay: Anticancer human tumor 242566-281-R-J2-PDC patient-derived pancreatic carcinoma cell line growth inhibition [CLK]
Details: for IC50: curve of first compound; for viability, T/C: stronger effect = lower value
How it was run: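 Multi-cell-type spheroids combined patient-derived tumor cells with HUVEC endothelial cells and human mesenchymal stem cells. Paired agents were dosed in half-log steps down from about clinical Cmax, or from 10 microM where Cmax was unknown.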
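Further: spheroids exposed to compounds for 7 days before readout.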
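Wherever viability, T/C is given: 100% = DMSO vehicle control wells.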

Q: With Cn1ncnc1[C@H]1c2n[nH]c(=O)c3cc(F)cc(c23)N[C@@H]1c1ccc(F)cc1 + CNC(=O)c1ccc(Nc2nc(OC3CCCC3)c3c(-c4ccc5nc(C)oc5c4)c[nH]c3n2)c(OC)c1 as the compound, how does the IC50 (second compound 0.0316 µM) read?
A: > 100 nM

Q: What about the IC50 (second compound 0.1 µM) of the same compound?
A: > 100 nM

Q: And the IC50 (second compound 0.316 µM)?
A: > 100 nM

Q: What about the IC50 (second compound 1 µM) of the same compound?
A: > 100 nM

Q: And the IC50 (second compound 3.16 µM)?
A: 31.1 nM

Q: What about the IC50 (second compound 10 µM) of the same compound?
A: 2.02 nM

Q: And the viability, T/C (second compound 0.0316 µM, first compound 0.000316 µM)?
A: 126%

Q: What about the viability, T/C (second compound 0.0316 µM, first compound 0.001 µM) of the same compound?
A: 105%

Q: What about the viability, T/C (second compound 0.0316 µM, first compound 0.00316 µM) of the same compound?
A: 104%

Q: And the viability, T/C (second compound 0.0316 µM, first compound 0.01 µM)?
A: 127%

Q: What about the viability, T/C (second compound 0.0316 µM, first compound 0.0316 µM) of the same compound?
A: 91.8%

Q: What about the viability, T/C (second compound 0.0316 µM, first compound 0.1 µM) of the same compound?
A: 98.8%

Q: And the viability, T/C (second compound 0.1 µM, first compound 0.000316 µM)?
A: 100%

Q: And the viability, T/C (second compound 0.1 µM, first compound 0.001 µM)?
A: 123%

Q: And the viability, T/C (second compound 0.1 µM, first compound 0.00316 µM)?
A: 84.1%

Q: What about the viability, T/C (second compound 0.1 µM, first compound 0.01 µM) of the same compound?
A: 92.3%

Q: What about the viability, T/C (second compound 0.1 µM, first compound 0.0316 µM) of the same compound?
A: 98.5%

Q: And the viability, T/C (second compound 0.1 µM, first compound 0.1 µM)?
A: 87.8%

Q: What about the viability, T/C (second compound 0.316 µM, first compound 0.000316 µM) of the same compound?
A: 104%

Q: What about the viability, T/C (second compound 0.316 µM, first compound 0.001 µM) of the same compound?
A: 86.3%

Q: And the viability, T/C (second compound 0.316 µM, first compound 0.00316 µM)?
A: 85.1%

Q: And the viability, T/C (second compound 0.316 µM, first compound 0.01 µM)?
A: 89.9%

Q: And the viability, T/C (second compound 0.316 µM, first compound 0.0316 µM)?
A: 79.9%

Q: What about the viability, T/C (second compound 0.316 µM, first compound 0.1 µM) of the same compound?
A: 76.5%

Q: And the viability, T/C (second compound 1 µM, first compound 0.000316 µM)?
A: 70.9%

Q: And the viability, T/C (second compound 1 µM, first compound 0.001 µM)?
A: 67.2%

Q: And the viability, T/C (second compound 1 µM, first compound 0.00316 µM)?
A: 62.5%

Q: What about the viability, T/C (second compound 1 µM, first compound 0.01 µM) of the same compound?
A: 64.8%

Q: What about the viability, T/C (second compound 1 µM, first compound 0.0316 µM) of the same compound?
A: 56.1%

Q: And the viability, T/C (second compound 1 µM, first compound 0.1 µM)?
A: 52.4%

Q: And the viability, T/C (second compound 3.16 µM, first compound 0.000316 µM)?
A: 55.5%

Q: What about the viability, T/C (second compound 3.16 µM, first compound 0.001 µM) of the same compound?
A: 52%

Q: And the viability, T/C (second compound 3.16 µM, first compound 0.00316 µM)?
A: 49.6%

Q: What about the viability, T/C (second compound 3.16 µM, first compound 0.01 µM) of the same compound?
A: 47.6%

Q: And the viability, T/C (second compound 3.16 µM, first compound 0.0316 µM)?
A: 56.2%

Q: And the viability, T/C (second compound 3.16 µM, first compound 0.1 µM)?
A: 47%

Q: What about the viability, T/C (second compound 10 µM, first compound 0.000316 µM) of the same compound?
A: 50.2%

Q: What about the viability, T/C (second compound 10 µM, first compound 0.001 µM) of the same compound?
A: 53.8%

Q: What about the viability, T/C (second compound 10 µM, first compound 0.00316 µM) of the same compound?
A: 45.2%

Q: And the viability, T/C (second compound 10 µM, first compound 0.01 µM)?
A: 49.8%

Q: And the viability, T/C (second compound 10 µM, first compound 0.0316 µM)?
A: 50.3%

Q: What about the viability, T/C (second compound 10 µM, first compound 0.1 µM) of the same compound?
A: 49.1%
